Source: patent US11583547B2, “Chemotherapy drug-sensitizing method, agent composition and use thereof” (FU JEN CATHOLIC UNIVERSITY, priority 2020, dated 2023)

What was measured:
Format in all cases: cell-based
[1] = system: BxPC-3 pancreatic cancer cells; assay: western blot of cell apoptosis marker (cleaved PARP) after antagomiR-1976 transfection; conditions: BxPC-3, antagomiR-1976 transfection; FIG. 4A
Source text: (§1) FIGS. 4A and 4B are cell apoptosis charts of BxPC-3 and AsPC-1 pancreatic cancer cells with antagomiR-1976 transfection obtained from western blot analysis applied in the chemotherapy drug-sensitizing method in accordance with the preferred embodiment of the present invention. Referring now to FIG. 4A, by way of example, results of pancreatic cancer cell BxPC-3 applied in the chemotherapy drug-sensitizing method in accordance with the present invention are shown. Referring now to FIG. 4B, by way of example, results of pancreatic cancer cell AsPC-1 applied in the chemotherapy drug-sensitizing method in accordance with the present invention are shown.

[2] = system: AsPC-1 pancreatic cancer cells; assay: as above; conditions: AsPC-1, antagomiR-1976 transfection; FIG. 4B
Source text: as §1

[3] = system: pancreatic cancer cells; assay: qPCR analysis of miR-1976 expression after gemcitabine induction; conditions: induction by gemcitabine; FIG. 1B
Source text: FIGS. 1A and 1B are microRNA expression charts released in extracellular vesicle and intracellular obtained from micro array analysis and qPCR analysis applied in the chemotherapy drug-sensitizing method in accordance with the preferred embodiment of the present invention.

Molecule | amount of pancreatic cancer cell apoptosis marker (cleaved PARP) [1] | amount of pancreatic cancer cell apoptosis marker (cleaved PARP) [2] | amount of miR-1976 in pancreatic cancer cells [3]
5′-ACAGCAAGGAGGGCAGGAGG-3′ (listed as RNA, chemistry not given here) [antagomiR-1976] | obviously increased | obviously increased | 
Nc1ccn([C@@H]2O[C@H](CO)[C@@H](O)C2(F)F)c(=O)n1 [gemcitabine] |  |  | selectively increased
